This note sets out measurements from EP4729529A1, “PREPARATION OF PEPTIDE INHIBITOR OF INTERLEUKIN-23 RECEPTOR AND USE THEREOF” (Xizang Haisco Pharmaceutical Co., Ltd., priority 2023, dated 2024).

The target in assay [1] is T1, IL-23α/IL-12β and IL-23R (Homo sapiens, UniProt Q5VWK5).
T1 construct: purchased ACRO ILR-H82F3 (IL-23R); ILB-H52W5 (IL-23α/IL-12β)
T1 sequence (Q5VWK5 24-353 limits assumed): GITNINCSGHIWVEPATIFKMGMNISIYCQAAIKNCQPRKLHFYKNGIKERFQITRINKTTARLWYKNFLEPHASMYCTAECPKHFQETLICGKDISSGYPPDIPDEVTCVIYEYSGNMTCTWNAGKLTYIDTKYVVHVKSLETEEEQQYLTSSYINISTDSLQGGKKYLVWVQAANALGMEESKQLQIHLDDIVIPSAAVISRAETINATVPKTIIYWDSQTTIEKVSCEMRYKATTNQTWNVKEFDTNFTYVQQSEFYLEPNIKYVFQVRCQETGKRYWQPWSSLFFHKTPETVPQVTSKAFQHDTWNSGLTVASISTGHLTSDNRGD
Briefly: IL-23α/IL-12β and IL-23R binding assay (TR-FRET/HTRF). The following applies: inhibition of the binding of IL-23α/IL-12β to IL-23R, TR-FRET; both proteins 0.3 nM. In short, it runs like this: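 TR-FRET with IL-23α/IL-12β and IL-23R each at 0.3 nM in PPI buffer; compound preincubated with IL-23α/IL-12β 60 min at 25°C, then IL-23R and Tb/d2 detection reagents added for 60 min. HTRF 665/620 ratio; IC50 by nonlinear regression.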
Background: Time-resolved FRET reads energy transfer from a long-lived donor to a nearby acceptor.

The target of assay [2] is T2, IL-23R (Homo sapiens, UniProt Q5VWK5).
T2 construct: host or cells: HEK-blue IL23 reporter gene cell line
T2 sequence (Q5VWK5 24-629): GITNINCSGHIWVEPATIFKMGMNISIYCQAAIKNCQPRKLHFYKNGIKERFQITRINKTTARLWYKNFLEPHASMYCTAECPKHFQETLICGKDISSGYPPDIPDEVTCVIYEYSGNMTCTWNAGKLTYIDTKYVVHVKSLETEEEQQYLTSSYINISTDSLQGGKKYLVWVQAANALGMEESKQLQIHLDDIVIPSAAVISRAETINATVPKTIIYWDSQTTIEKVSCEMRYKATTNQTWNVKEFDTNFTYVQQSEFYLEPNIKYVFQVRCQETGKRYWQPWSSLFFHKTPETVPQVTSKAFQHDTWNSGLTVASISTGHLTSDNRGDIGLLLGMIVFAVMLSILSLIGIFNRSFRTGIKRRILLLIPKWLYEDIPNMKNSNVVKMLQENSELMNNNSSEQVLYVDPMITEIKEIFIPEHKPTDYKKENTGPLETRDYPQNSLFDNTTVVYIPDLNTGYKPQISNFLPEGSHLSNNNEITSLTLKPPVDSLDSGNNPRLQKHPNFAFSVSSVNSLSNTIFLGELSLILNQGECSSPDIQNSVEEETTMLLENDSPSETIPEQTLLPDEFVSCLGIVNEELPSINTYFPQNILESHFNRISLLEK
Briefly: IL-23R reporter gene assay (HEK-blue IL23 reporter gene cell line, rhIL23 stimulation). The format is cell-based. The conditions noted are these: Inhibition of IL-23R, rhIL23 1 ng/mL, 24 hours. The procedure: 2. IL-23R reporter gene assay
The purpose of this assay was to assess the ability of compounds to inhibit the binding of IL23p19 to IL23R in a reporter gene system. The HEK-blue IL23 reporter gene cell line (Invivogen, hkb-il23) was cultured in DMEM + 10% FBS + 100 ug/mL Normocin medium. When the cell density reached 80%-90%, 5000 cells/well were plated into a 384-well plate, and the plate was incubated overnight at 37°C with 5% CO2. Then, the compound stock solution was diluted in DMSO, and 40 nL of the dilution was transferred into the 384-well culture plate by Echo. The plate was incubated at 37°C with 5% CO2 for 0.5 hours. 40 nL/well of rhIL23 (R&D, 1290-IL) was added to the 384-well cell culture plate at a final concentration of 1 ng/mL, and the plate was incubated at 37°C with 5% CO2 for 24 hours. 18 µL of Quanti-Blue™ solution was added to a new 384-well plate. 2 µL/well of cell culture supernatant was transferred into the 384-well plate prepared in Step 6, and the plate was incubated at 37°C with 5% CO2 for 1 hour. Absorbance values at […] were read on BMG. The binding ability of the compounds was assessed using the following formula, and IC50 values were obtained by fitting with Graphpad.
(§1) Calculation formula of inhibition rate: [formula] • where Data negative: mean of DMSO control group; and • Data positive: mean of non-IL23-stimulated group
The calculation formula of IC50 was as follows: Y = Bottom + (Top−Bottom)/(1+10^(∧)((LogIC50−X)*HillSlope)) [formula] • where X: concentration of compound; and • Y: inhibition rate of compound Table 2. Inhibition of IL-23R by test compounds
A general note: Reporter assays use an easily measured gene product as a stand-in for the process of interest.

Assay [3] addresses (Homo sapiens, UniProt Q5VWK5). In words: IL-23-stimulated pSTAT3 detection assay in PBMCs (ELISA). It counts as cell-based. The conditions noted are these: rhIL23 stimulation 30 minutes, read-out: pSTAT3 inhibition/IC50. The procedure: 3. IL-23-stimulated pSTAT3 detection assay in PBMCs
Cryopreserved human PBMCs were thawed, and seeded onto a plate previously covered with an anti-CD3 antibody at 1 × 10^6 cells/well. Then, an anti-CD28 antibody was added to the plate, and the cells were incubated at 37°C with 5% CO2 for 5 days. On Day 5, the cells were seeded onto a 96-well plate at a density of 100K cells/well after 4 hours of stimulation by FBS starvation. The diluted Compound was transferred into the 96-well cell culture plate, and the plate was incubated at 37°C with 5% CO2 for 1 hour. rhIL23 (R&D, 1290-IL) was added to the cell culture plate, and the plate was incubated at 37°C with 5% CO2 for 30 minutes. The cells in the wells were lysed on ice with a lysis buffer containing 1× PHOSstop solution for 30 minutes, and the plate was centrifuged at 1000 rpm for 1 minute. Then, the supernatant was transferred into a 96-well ELISA plate, and pSTAT3 ELISA assay was performed according to the instructions of the kit (CST, 7300CA). Absorbance values at […] were read on PHERAstar FSX (BMG LRBTECH). The inhibition rate of the compounds was assessed using the following formula, and IC50 values were obtained by fitting with Graphpad.
as §1
The calculation formula of IC50 was as follows: Y = Bottom + (Top−Bottom)/(1+10^(∧)((LogIC50−X)*HillSlope)) [formula] • where X: concentration of compound; and • Y: inhibition rate of compound. Table 3. pSTAT3 inhibition
A general note: ELISA stands for enzyme-linked immunosorbent assay.

Positions of bridges follow the written chain, without caps; N, C: chain ends. Non-standard residues stand in square brackets, D forms with d. Residues, ends and D or L forms follow the SMILES beside them. Trp(7-cPr) = N[C@@H](Cc1c[nH]c2c(C3CC3)cccc12)C(=O)O; Trp(7-Me) = Cc1cccc2c(C[C@H](N)C(=O)O)c[nH]c12; 2Nal = N[C@@H](Cc1ccc2ccccc2c1)C(=O)O; AEF = NCCOc1ccc(C[C@H](N)C(=O)O)cc1; 3Pal = N[C@@H](Cc1cccnc1)C(=O)O; Cit = NC(=O)NCCC[C@H](N)C(=O)O; Pen = CC(C)(S)[C@H](N)C(=O)O; Dab = NCC[C@H](N)C(=O)O; Thp = NC1(C(=O)O)CCOCC1; Sar = CNCC(=O)O

Sequence of (Homo sapiens, UniProt Q5VWK5) (Q9NPF7 20-189 partner, other chains not shown): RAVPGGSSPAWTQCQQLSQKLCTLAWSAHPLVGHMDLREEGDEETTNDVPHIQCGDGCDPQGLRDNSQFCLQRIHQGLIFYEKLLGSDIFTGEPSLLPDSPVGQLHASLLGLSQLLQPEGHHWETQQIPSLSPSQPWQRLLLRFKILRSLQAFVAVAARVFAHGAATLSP
Sequence of (Homo sapiens, UniProt Q5VWK5) (P29460 23-328 partner, other chains not shown): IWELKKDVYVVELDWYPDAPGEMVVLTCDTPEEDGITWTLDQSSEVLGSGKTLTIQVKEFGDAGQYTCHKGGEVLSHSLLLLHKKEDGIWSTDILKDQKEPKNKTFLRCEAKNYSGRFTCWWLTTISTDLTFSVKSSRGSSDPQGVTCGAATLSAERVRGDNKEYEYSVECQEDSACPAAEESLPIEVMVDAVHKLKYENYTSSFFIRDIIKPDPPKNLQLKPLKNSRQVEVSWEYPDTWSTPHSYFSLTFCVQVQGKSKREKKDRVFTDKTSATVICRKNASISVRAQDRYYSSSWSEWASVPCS

For the compound `CC(=O)N[C@@H]1C(=O)N[C@@H](Cc2c[nH]cn2)C(=O)N[C@@H]([C@@H](C)O)C(=O)N[C@@H](Cc2c[nH]c3c(C)cccc23)C(=O)N[C@@H](CCC(N)=O)C(=O)N[C@H](C(=O)N[C@@H](Cc2ccc(OCCN)cc2)C(=O)N[C@@H](Cc2ccc3ccccc3c2)C(=O)NC2(C(=O)N[C@@H](CCC(=O)O)C(=O)N[C@@H](CC(N)=O)C(=O)N[C@@H](Cc3cccnc3)C(=O)N(C)CC(N)=O)CCOCC2)C(C)(C)SSC1(C)C` [Compound 1] (Ac-[Pen]HT[Trp(7-Me)]Q[Pen][AEF][2Nal][Thp]EN[3Pal][Sar]-NH2; disulfide 1-6), the IC50 in assay [1] worked out at 0.0642 nM; in assay [2] it was 1.1 nM; in assay [3], 0.0071 nM.

Consider `CC(=O)N[C@@H]1C(=O)N[C@@H](Cc2c[nH]cn2)C(=O)N[C@@H]([C@@H](C)O)C(=O)N[C@@H](Cc2c[nH]c3c(C)cccc23)C(=O)N[C@@H](CCCNC(N)=O)C(=O)N[C@H](C(=O)N[C@@H](Cc2ccc(OCCN)cc2)C(=O)N[C@@H](Cc2ccc3ccccc3c2)C(=O)NC2(C(=O)N[C@@H](CCC(=O)O)C(=O)N[C@@H](CC(N)=O)C(=O)N[C@@H](Cc3cccnc3)C(=O)N(C)CC(N)=O)CCOCC2)C(C)(C)SSC1(C)C` [Compound 2] (Ac-[Pen]HT[Trp(7-Me)][Cit][Pen][AEF][2Nal][Thp]EN[3Pal][Sar]-NH2; disulfide 1-6), for which the IC50 in assay [1] amounted to 0.0768 nM; in assay [2] it was 1.21 nM; in assay [3], 0.0068 nM.

Regarding `CC(=O)NCCCC[C@@H]1NC(=O)[C@H](Cc2c[nH]c3c(C)cccc23)NC(=O)[C@H]([C@@H](C)O)NC(=O)[C@H](Cc2c[nH]cn2)NC(=O)[C@@H](NC(C)=O)C(C)(C)SSC(C)(C)[C@@H](C(=O)N[C@@H](Cc2ccc(OCCN)cc2)C(=O)N[C@@H](Cc2ccc3ccccc3c2)C(=O)NC2(C(=O)N[C@@H](CCC(=O)O)C(=O)N[C@@H](CC(N)=O)C(=O)N[C@@H](Cc3cccnc3)C(=O)N(C)CC(N)=O)CCOCC2)NC1=O` [Compound 3] (Ac-[Pen]HT[Trp(7-Me)]K(Ac)[Pen][AEF][2Nal][Thp]EN[3Pal][Sar]-NH2; disulfide 1-6), the IC50 is 0.174 nM in assay [1], 1.36 nM in assay [2] and 0.0066 nM in assay [3].

In the case of `CC(=O)N[C@@H]1C(=O)N[C@@H](Cc2c[nH]cn2)C(=O)N[C@@H]([C@@H](C)O)C(=O)N[C@@H](Cc2c[nH]c3c(C4CC4)cccc23)C(=O)N[C@@H](CCC(N)=O)C(=O)N[C@H](C(=O)N[C@@H](Cc2ccc(OCCN)cc2)C(=O)N[C@@H](Cc2ccc3ccccc3c2)C(=O)NC2(C(=O)N[C@@H](CCC(=O)O)C(=O)N[C@@H](CC(N)=O)C(=O)N[C@@H](Cc3cccnc3)C(=O)N(C)CC(N)=O)CCOCC2)C(C)(C)SSC1(C)C` [Compound 13] (Ac-[Pen]HT[Trp(7-cPr)]Q[Pen][AEF][2Nal][Thp]EN[3Pal][Sar]-NH2; disulfide 1-6), the IC50 in assay [1] amounted to 0.0384 nM; in assay [2], 3.12 nM; in assay [3], 0.001 nM.

Consider `CC(=O)N[C@H]1CC(=O)NCC[C@@H](C(=O)N[C@@H](Cc2ccc(OCCN)cc2)C(=O)N[C@@H](Cc2ccc3ccccc3c2)C(=O)NC2(C(=O)N[C@@H](CCC(=O)O)C(=O)N[C@@H](CC(N)=O)C(=O)N[C@@H](Cc3cccnc3)C(=O)N(C)CC(N)=O)CCOCC2)NC(=O)[C@H](CCC(N)=O)NC(=O)[C@H](Cc2c[nH]c3c(C)cccc23)NC(=O)[C@H]([C@@H](C)O)NC(=O)[C@H](Cc2c[nH]cn2)NC1=O` [Compound 22] (Ac-DHT[Trp(7-Me)]Q[Dab][AEF][2Nal][Thp]EN[3Pal][Sar]-NH2; lactam 1-6), for which the IC50 in assay [1] was 0.129 nM; in assay [3], 0.0157 nM.
